Reference: patent US20230015823A1, “METHODS OF ADMINISTERING VOXELOTOR” (Global Blood Therapeutics, Inc., priority 2019, published 2023)
Entries after “also recorded” stand apart in the source; their conditions may differ. Read-outs that look alike come from different tables or passages of the source.

Legend:
CYP1A2 = CYP1A2 (Homo sapiens, UniProt P05177); test: Effect of voxelotor on PK of CYP1A2 probe substrate caffeine in healthy subjects; assay type: in vivo
Procedure: During Period 1, subjects received a single dose of caffeine 100 mg, warfarin sodium 10 mg+vitamin K 10 mg, omeprazole 20 mg, and midazolam hydrochloride 2 mg on Day 1. During Period 2, subjects received voxelotor 900 mg QD on Days 1 and 2 followed by 600 mg QD on Day 3, a single dose of caffeine 100 mg, warfarin sodium 10 mg+vitamin K 10 mg, omeprazole 20 mg, and midazolam hydrochloride 2 mg on Day 4, and voxelotor 600 mg QD on Days 4 through 7.
Whole blood and plasma concentrations of voxelotor and plasma concentrations of caffeine, paraxanthine, S-warfarin, omeprazole, 5-hydroxyomeprazole, midazolam, and 1-hydroxymidazolam were determined using validated assays.

[1] = Clinical pharmacokinetics of voxelotor in plasma, whole blood and RBCs; assay type: in vivo, human; conditions: for AUC(0-t): read-out: AUC0-24h, Geometric Mean (% CV); for Cmax: read-out: Cmax, Geometric Mean (% CV)
Text: Voxelotor is absorbed into plasma and is then distributed predominantly into RBCs due to its preferential binding to Hb. The major route of elimination of voxelotor is by metabolism with subsequent excretion of metabolites into urine and feces. The PK are linear and voxelotor exposures increased proportionally with either single or multiple doses (Table 3) in whole blood, plasma, and RBCs. Steady-state after repeated administration is reached within 8 days and exposures of voxelotor are consistent with accumulation predicted based on single dose data in patients with SCD.
The median plasma and whole blood Tmax of voxelotor after oral administration is 2 hours. The mean peak concentrations in whole blood and RBCs are observed between 6 and 18 hours after oral administration.
Voxelotor apparent volume of distribution of the central compartment and peripheral compartment are 338 L and 72.2 L in plasma, respectively. Protein binding is 99.8% in vitro. The blood-to-plasma ratio is approximately 15:1 in patients with SCD.

[2] = Excretion after administration of radiolabeled voxelotor; assay type: in vivo
Text: Following the administration of radiolabeled voxelotor, approximately 62.6% of the dose and its metabolites are excreted into feces (33.3% unchanged) and 35.5% in urine (0.08% unchanged).

pregnant rabbits = test: Embryo-fetal development study in pregnant rabbits; assay type: in vivo, rabbit
Procedure: In embryo-fetal development studies, voxelotor was administered orally to pregnant rats at 15, 50, and 250 mg/kg/day (gestation days 7 through 17) and rabbits at 25, 75, and 150 mg/kg/day (gestation days 7 through 19) through organogenesis.

[3] = Voxelotor in milk of lactating rats; assay type: in vivo, rat
Text: There are no data on the presence of voxelotor in human milk, the effects on the breastfed child, or the effects on milk production. […] Plasma concentrations of voxelotor in pregnant rats were higher than the concentration in milk. When a drug is present in animal milk, it is likely that the drug will be present in human milk. […] Because of the potential for serious adverse reactions in the breastfed child, including changes in the hematopoietic system, advise patients that breastfeeding is not recommended during treatment with OXBRYTA, and for at least 2 weeks after the last dose.

[4] = Phase 1 hepatic impairment study: safety evaluation (TEAEs); assay type: in vivo
Text: This was a Phase 1, multiple-center, nonrandomized, open-label, parallel group study of a single oral dose of voxelotor administered in subjects with mild (Child-Pugh A; score 5 to 6 points), moderate (Child-Pugh B; score 7 to 9 points), or severe (Child-Pugh C; score 10 to 15 points) hepatic impairment and subjects with normal hepatic function. This study was designed to assess the effects of mild, moderate, or severe hepatic impairment on the PK of a single oral dose of voxelotor. Routine safety assessments (AE monitoring, vital signs, physical examinations, clinical laboratory tests, and ECGs) were performed.
Eligible subjects received a single oral dose of voxelotor 1500 mg (5×300-mg capsules) on Day 1 (for normal hepatic function, mild and moderate hepatic impairment). A lower dose of voxelotor 600 mg (2×300-mg capsules) was administered for the subjects with severe hepatic impairment.
Adverse events and concomitant medication use were monitored throughout the study. Safety assessments, including physical examinations, vital signs assessments, 12-lead ECGs, and clinical laboratory tests, were performed. Whole blood and plasma concentrations of voxelotor were determined using validated assays.
All statistical analyses were performed using the safety population. All AEs were coded to SOC and PT using MedDRA (Version 19.0) and presented by subject in data listings. A treatment-emergent AE was defined as an AE that was not present prior to treatment with study drug, but appeared following treatment or was present at treatment initiation but worsened during treatment. An AE that was present at treatment initiation but resolved and then reappeared while the subject was on treatment was a TEAE (regardless of the intensity of the AE when the treatment was initiated). Programmatically, an AE was classified as a TEAE if the start date and time occurred on or after the start date and time of first study drug dosing. The overall incidence of TEAEs (number and percentage of subjects) as well as the number of events were summarized by hepatic function group, severity, SAEs, causally related TEAE and SAEs, TEAEs leading to study or treatment discontinuation, life-threatening SAEs, and SAEs resulting in death.
The TEAEs were summarized and tabulated at both the subject (number [%] of subjects) and event (number of events) level: (1) by hepatic function group, SOC, and PT; (2) by hepatic function group, SOC, PT, and maximum reported severity; and (3) by hepatic function group, SOC, PT, and maximum relationship to study drug.

rat = test: Rat micronucleus assay; assay type: in vivo
Text: (§1) Voxelotor was not genotoxic in the reverse mutation bacterial (Ames) test, rat Comet assay, or rat micronucleus assay.

[5] = tested on: bacterial reverse mutation; test: Reverse mutation bacterial (Ames) test; assay type: cell-based
Text: as §1

[6] = human, oral, 1500 mg, plasma, Voxelotor 1,500 mg
[7] = human, oral, 1500 mg, whole blood, Voxelotor 1,500 mg

Sequence of CYP1A2 (P05177 whole entry): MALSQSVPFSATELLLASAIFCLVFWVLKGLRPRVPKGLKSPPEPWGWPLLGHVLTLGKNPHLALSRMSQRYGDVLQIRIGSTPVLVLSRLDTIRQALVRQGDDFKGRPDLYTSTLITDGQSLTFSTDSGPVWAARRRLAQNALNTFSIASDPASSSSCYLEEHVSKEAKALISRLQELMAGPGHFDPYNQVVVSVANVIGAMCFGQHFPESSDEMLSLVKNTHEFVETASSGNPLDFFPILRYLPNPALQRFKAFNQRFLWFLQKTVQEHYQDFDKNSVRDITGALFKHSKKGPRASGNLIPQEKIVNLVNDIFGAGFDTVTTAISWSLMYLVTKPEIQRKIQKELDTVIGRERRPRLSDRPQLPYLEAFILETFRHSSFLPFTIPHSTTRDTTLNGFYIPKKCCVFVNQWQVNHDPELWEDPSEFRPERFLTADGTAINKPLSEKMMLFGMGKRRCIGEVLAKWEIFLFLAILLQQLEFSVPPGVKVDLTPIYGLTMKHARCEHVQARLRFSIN

## CC(C)n1nccc1-c1ncccc1COc1cccc(O)c1C=O [voxelotor, 2-hydroxy-6-((2-(1-isopropyl-1H-pyrazol-5-yl)pyridin-3-yl)methoxy)benzaldehyde]
CYP1A2; healthy subjects, multiple doses of voxelotor 900/600 mg QD
  effect of voxelotor on PK of CYP1A2 probe substrate (caffeine): no clinically meaningful effect
CYP1A2; human, in vivo
  inhibition of CYP1A2 in vivo: not
[1]; [6]
  AUC(0-t): 246 µg·h/mL
  Cmax: 12.6 µg/mL
[1]; [7]
  AUC(0-t): 3820 µg·h/mL
  Cmax: 179 µg/mL
[1]; human, plasma, oral, 1500 mg, patients with SCD, read-out: terminal elimination half-life, geometric mean (converted)
  half-life: 35.5 h
[1]; human, plasma, oral, read-out: apparent volume of distribution of the central compartment
  Vd: 338 L
[1]; human, plasma and whole blood, oral administration, read-out: median Tmax
  Tmax: 2 h
[1]; patients with SCD
  time to steady-state after repeated administration: ≤ 8 days
[1]; plasma
  apparent volume of distribution of the peripheral compartment: 72.2 L
[1]; plasma, Voxelotor 1,500 mg
  Half-life, Geometric Mean (% CV): 35.5 (25) hours
[1]; plasma, patients with SCD
  apparent oral clearance: 6.7 L/h
[1]; single or multiple doses, whole blood, plasma and RBCs
  PK linearity: linear
[2]
  dose and its metabolites excreted in urine: 35.5%
  dose and its metabolites excreted into feces: approximately 62.6%
  dose excreted unchanged in urine: 0.08%
  dose excreted unchanged into feces: 33.3%
Pregnant rabbits; pregnant rabbits, oral 25, 75, 150 mg/kg/day, gestation days 7 through 19
  adverse developmental outcomes: no adverse developmental effects; also recorded: no evidence of adverse developmental outcomes
Pregnant rabbits; rabbits, 150 mg/kg/day
  exposure at highest dose level (maternal toxicity observed) relative to exposure in patients at the recommended daily dose: 0.3 times
[3]
  presence in milk: detected in milk
[4]; all hepatic function groups
  deaths, SAEs, AEs leading to discontinuation: No deaths, other serious adverse events (SAEs), and no AEs leading to discontinuation of the study were reported
[4]; mild hepatic impairment, 4 of 7 subjects
  subjects reporting mild TEAEs: 57.1%
[4]; moderate hepatic impairment, 1 of 7 subjects
  subjects reporting a moderate TEAE: 14.3%
[4]; moderate hepatic impairment, 1500 mg, 5 of 7 subjects
  subjects with TEAE of diarrhea (mild): 71.4%
[4]; moderate hepatic impairment, 5 of 7 subjects
  subjects reporting mild TEAEs: 71.4%
[4]; normal hepatic function, 1500 mg
  TEAEs: No TEAEs were reported
[4]; overall, 7 events in 7 subjects
  subjects with diarrhea (most frequently reported TEAE): 25%
[4]; overall, 11 subjects, 17 TEAEs
  subjects reporting TEAEs: 39.3%
[4]; overall, seven subjects, 8 TEAEs
  subjects with TEAEs possibly/probably related to study drug: 25.0%
[4]; severe hepatic impairment, 600 mg, 1 of 7 subjects
  subjects reporting a mild TEAE and a moderate TEAE: 14.3%
[4]; single oral dose 1500 mg (mild, moderate, normal) or 600 mg (severe hepatic impairment)
  safety and tolerability: safe and well tolerated
rat
  genotoxicity: not genotoxic
[5]
  genotoxicity: not genotoxic
